Data as given in the supplement of paper PMC11451515.

System: SEM cells
Test: cell viability relative to DMSO control; higher = less cytotoxic
Details: 48 h
How it was run: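 Viability was expressed as a per-plate percentage of DMSO wells, with cell-free wells as background. Leukemia cells (NOMO1 or SEM at 500 cells/well, P12-Ichikawa at 1000 cells/well) were adapted for at least four passages in each medium and seeded in 1536-well plates (5 μl). Library compounds in DMSO were pin-dosed over an 11-point threefold series from 47 μM to 0.79 nM, and CellTiter-Glo One luminescence was read after 48 h at 37°C.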

[1] = HPLM + 10% dialyzed FBS, 0.000781 µM
[2] = HPLM + 10% dialyzed FBS, 0.00234 µM
[3] = HPLM + 10% dialyzed FBS, 0.00702 µM
[4] = HPLM + 10% dialyzed FBS, 0.0211 µM
[5] = HPLM + 10% dialyzed FBS, 0.0632 µM
[6] = HPLM + 10% dialyzed FBS, 0.19 µM
[7] = HPLM + 10% dialyzed FBS, 0.569 µM
[8] = HPLM + 10% dialyzed FBS, 1.71 µM
[9] = HPLM + 10% dialyzed FBS, 5.12 µM
[10] = HPLM + 10% dialyzed FBS, 15.4 µM
[11] = HPLM + 10% dialyzed FBS, 46.1 µM
[12] = RPMI 5 mM glucose + 10% dialyzed FBS, 0.000781 µM
[13] = RPMI 5 mM glucose + 10% dialyzed FBS, 0.00234 µM
[14] = RPMI 5 mM glucose + 10% dialyzed FBS, 0.00702 µM
[15] = RPMI 5 mM glucose + 10% dialyzed FBS, 0.0211 µM
[16] = RPMI 5 mM glucose + 10% dialyzed FBS, 0.0632 µM
[17] = RPMI 5 mM glucose + 10% dialyzed FBS, 0.19 µM
[18] = RPMI 5 mM glucose + 10% dialyzed FBS, 0.569 µM
[19] = RPMI 5 mM glucose + 10% dialyzed FBS, 1.71 µM
[20] = RPMI 5 mM glucose + 10% dialyzed FBS, 5.12 µM
[21] = RPMI 5 mM glucose + 10% dialyzed FBS, 15.4 µM
[22] = RPMI 5 mM glucose + 10% dialyzed FBS, 46.1 µM
[23] = RPMI 5 mM glucose + 10% FBS, 0.000781 µM
[24] = RPMI 5 mM glucose + 10% FBS, 0.00234 µM
[25] = RPMI 5 mM glucose + 10% FBS, 0.00702 µM
[26] = RPMI 5 mM glucose + 10% FBS, 0.0211 µM
[27] = RPMI 5 mM glucose + 10% FBS, 0.0632 µM
[28] = RPMI 5 mM glucose + 10% FBS, 0.19 µM
[29] = RPMI 5 mM glucose + 10% FBS, 0.569 µM
[30] = RPMI 5 mM glucose + 10% FBS, 1.71 µM
[31] = RPMI 5 mM glucose + 10% FBS, 5.12 µM
[32] = RPMI 5 mM glucose + 10% FBS, 15.4 µM
[33] = RPMI 5 mM glucose + 10% FBS, 46.1 µM

Row | SMILES | cell viability [1] [%] | cell viability [2] [%] | cell viability [3] [%] | cell viability [4] [%] | cell viability [5] [%] | cell viability [6] [%] | cell viability [7] [%] | cell viability [8] [%] | cell viability [9] [%] | cell viability [10] [%] | cell viability [11] [%] | cell viability [12] [%] | cell viability [13] [%] | cell viability [14] [%] | cell viability [15] [%] | cell viability [16] [%] | cell viability [17] [%] | cell viability [18] [%] | cell viability [19] [%] | cell viability [20] [%] | cell viability [21] [%] | cell viability [22] [%] | cell viability [23] [%] | cell viability [24] [%] | cell viability [25] [%] | cell viability [26] [%] | cell viability [27] [%] | cell viability [28] [%] | cell viability [29] [%] | cell viability [30] [%] | cell viability [31] [%] | cell viability [32] [%] | cell viability [33] [%]
1 | COc1ccnc(C[S+]([O-])c2nc3cc(OC(F)F)ccc3[nH]2)c1OC (configuration not stated) | 110 | 111 | 124 | 123 | 122 | 123 | 133 | 119 | 134 | 128 | 143 | 111 | 95.9 | 126 | 131 | 125 | 118 | 127 | 144 | 126 | 130 | 137 | – | – | – | – | – | – | – | – | – | – | –
2 | CN(C)c1ccc2cc(C(=O)N[C@@H](CCCNC(=N)CCl)C(=O)NCc3ccccc3)ccc2c1 | 114 | 115 | 101 | 115 | 117 | 112 | 113 | 121 | 110 | 101 | 11.7 | 104 | 105 | 99.7 | 104 | 122 | 108 | 115 | 90 | 106 | 84 | 6.08 | 113 | 112 | 104 | 111 | 112 | 110 | 120 | 90.9 | 101 | 74.1 | 5.29
3 | CN[C@@H]1C[C@H]2O[C@@](C)([C@@H]1OC)n1c3ccccc3c3c4c(c5c6ccccc6n2c5c31)C(=O)N[C@H]4O | 72.1 | 79.1 | 87.6 | 77.7 | 64 | 55.4 | 36.7 | 16.5 | 6.79 | 3.78 | 3.23 | 82.8 | 78 | 76.6 | 90.4 | 67.3 | 69.8 | 45 | 5.6 | 5.83 | 3.57 | 2.57 | 81.2 | 87.9 | 83.8 | 84.1 | 57.5 | 69.5 | 35.4 | 5.65 | 4.44 | 4.12 | 2.58
4 | CC(C)(C)c1cc(C(=O)O)c(NC(=O)Nc2ccc3[nH]ncc3c2)s1 | 95.4 | 97.5 | 89.6 | 101 | 100 | 70.7 | 100 | 98.6 | 85.9 | 93.1 | 82.2 | 95.2 | 93.1 | 83.3 | 97.5 | 99.6 | 88.9 | 102 | 91 | 87.5 | 93.7 | 73.2 | 112 | 93.2 | 94.2 | 107 | 101 | 90.8 | 111 | 104 | 101 | 93.1 | 77.7
5 | O=C1NC(O)CCN1[C@@H]1O[C@H](CO)[C@@H](O)[C@H]1O (some centres not stated) | – | – | – | – | – | – | – | – | – | – | – | – | – | – | – | – | – | – | – | – | – | – | 114 | 125 | 123 | 111 | 114 | 125 | 117 | 111 | 115 | 134 | 122
6 | OCCCNc1cc(-c2ccnc(Nc3cccc(Cl)c3)n2)ccn1 | 86.3 | 99.5 | 110 | 108 | 121 | 45.7 | 10.1 | 8.28 | 6.56 | 5.81 | 3.56 | 96.2 | 105 | 114 | 113 | 122 | 62.1 | 10.9 | 5.73 | 6.76 | 5.91 | 3.62 | 103 | 125 | 125 | 123 | 143 | 88.2 | 10.4 | 5.66 | 6.14 | 5.72 | 3.94
7 | CCCCCCCCc1ccc(CCC(N)(CO)CO)cc1 | 103 | 108 | 108 | 111 | 101 | 120 | 110 | 118 | 97.1 | 83.2 | 2.73 | 105 | 116 | 117 | 110 | 104 | 110 | 115 | 109 | 107 | 124 | 3.38 | 99.4 | 115 | 107 | 120 | 122 | 111 | 115 | 121 | 93.7 | 107 | 2.59
8 | CC(=O)[C@H]1CC[C@H]2[C@@H]3CCC4=CC(=O)CC[C@]4(C)[C@H]3CC[C@]12C | 69 | 83.5 | 89.4 | 92.3 | 82.1 | 102 | 103 | 97 | 88.7 | 88.1 | 92.7 | 108 | 92.7 | 103 | 109 | 103 | 119 | 106 | 117 | 90.8 | 81.7 | 90.7 | 98 | 96.9 | 102 | 113 | 113 | 116 | 120 | 106 | 96.7 | 101 | 92.8
9 | CCCCN(CCCC)C(=O)CN1C[C@H](c2ccc3c(c2)OCO3)[C@@H](C(=O)O)[C@@H]1c1ccc(OC)cc1 | 98.6 | 107 | 114 | 98.2 | 103 | 105 | 106 | 92.5 | 28.4 | 55.3 | 63.4 | 112 | 112 | 125 | 84.8 | 116 | 127 | 109 | 106 | 74.8 | 75.8 | 67 | – | – | – | – | – | – | – | – | – | – | –
10 | CC[C@@]1(O)C[C@H](O[C@H]2C[C@H](N(C)C)[C@H](O[C@H]3C[C@H](O)[C@H](O[C@H]4CCC(=O)[C@H](C)O4)[C@H](C)O3)[C@H](C)O2)c2c(cc3c(c2O)C(=O)c2c(O)cccc2C3=O)[C@H]1C(=O)OC | 79.8 | 68.5 | 86.2 | 77.9 | 48.4 | 50 | 26.5 | 11.4 | 13.5 | 24 | 15.8 | 85.5 | 48.6 | 83.7 | 66.7 | 46.2 | 51.3 | 26.2 | 11.8 | 12.2 | 15.4 | 12.9 | 81 | 65.9 | 85.2 | 72.5 | 46.2 | 54.4 | 32.7 | 18.1 | 23.2 | 20.2 | 19.5
11 | CC(NCc1ccc2c(c1)[nH]/c(=N\C(=O)c1ccc(-c3cn[nH]c3)s1)n2CC(C)(C)O)C(C)(C)C (configuration not stated) | 112 | 89.6 | 62.7 | 52.4 | 47.7 | 41 | 24.9 | 10.9 | 8.32 | 2.2 | 2.08 | 122 | 85.4 | 79.8 | 42.4 | 45.7 | 41.5 | 27.2 | 16.2 | 6.16 | 1.94 | 1.53 | 96.7 | 112 | 76.3 | 58.5 | 48 | 36.5 | 31.3 | 14.9 | 4.21 | 1.66 | 1.98
12 | O=C1N\2CCC3=C([NH]C4=C3C=CC=C4)C2=N/C5=CC=CC=C15 | 96 | 102 | 114 | 118 | 92.8 | 123 | 123 | 115 | 110 | 90.8 | 76.8 | 123 | 112 | 142 | 135 | 121 | 153 | 147 | 135 | 151 | 101 | 53.6 | 124 | 113 | 137 | 134 | 109 | 126 | 122 | 147 | 144 | 95 | 83.7
13 | CCOC1=CC(=CC=C1C/2=N/[C@@](C)(C3=CC=C(Cl)C=C3)[C@](C)(N2C(=O)N4CCN(CC4)CC(=O)N5CCOCC5)C6=CC=C(Cl)C=C6)C(C)(C)C | 82.5 | 107 | 108 | 107 | 117 | 106 | 105 | 93.5 | 81.1 | 66 | 71 | 112 | 99.8 | 108 | 111 | 107 | 109 | 116 | 109 | 90.2 | 65.2 | 61.4 | – | – | – | – | – | – | – | – | – | – | –
14 | NCC(=O)Nc1ccc(-n2nc(C(F)(F)F)cc2-c2ccc3c(ccc4ccccc43)c2)cc1 | 109 | 136 | 117 | 121 | 120 | 112 | 129 | 121 | 113 | 99.1 | 95 | 119 | 138 | 119 | 124 | 120 | 114 | 128 | 132 | 100 | 51.4 | 45.1 | 87.7 | 100 | 112 | 102 | 116 | 114 | 101 | 107 | 98.3 | 84.8 | 72.6
